This note sets out measurements from patent publication US20260115202A1, “TOPICAL COMPOSITIONS COMPRISING AN ESTETROL COMPONENT AND USE OF SAID COMPOSITIONS FOR WOUND HEALING” (NEURALIS SA, priority 2022, published 2026).

Experiment [1] concerns human dermal fibroblasts (HDF). In words: Scratch wound assay, human dermal fibroblasts. It is filed as cell-based. As to conditions: for concentration of optimal stimulation of fibroblast scratch wound closure / scratch closure compared to vehicle control: HDF; for scratch closure: HDF fifth donor, 24 hours, DMEM with 2% CS-FBS, 0% FBS or 2% FBS; for scratch closure compared to vehicle control: 36 hours. The source says: Primary human dermal fibroblasts (HDF) were isolated from abdominal skin or leg skin. Primary neonatal normal human epidermal keratinocytes (NHEK) were purchased (Lonza). Murine dermal fibroblasts (MDF), murine epidermal keratinocytes (MEK), murine peritoneal macrophages and murine bone marrow were isolated from C57/B16 (wt). NDb (Lepr+/-) or Db (Lepr-/-) mice. Fibroblasts were isolated and cultured in DMEM supplemented with 10% heat inactivated FBS. 1% penicillin/streptomycin and 1% amphotericin B. At least 4 days prior to performing assays cells were switched to DMEM supplemented with 5% charcoal-stripped FBS. Cells were seeded into 24 well plates and cultured to form a confluent monolayer, and then scratched with a 1 ml pipette tip. Wells were treated with E2, E4 and/or various estrogen receptor agonists and antagonists. […] A vehicle control containing the equivalent concentration of EtOH and/or DMSO was included, in addition to an untreated negative control. All treatments were diluted to working concentrations in media supplemented with 2% charcoal-stripped FBS. To visualise scratches at the defined endpoint, cells were stained with crystal violet and imaged on a Nikon E400 brightfield microscope. Scratch closure was determined from multiple independent measurements per well. Scratch assays were performed to quantify the effect of E2 and E4 at varying concentrations on HDF migration (FIG. 14). […] 10^-7M and 10^-6M (152%. 147% and 142% respectively). Thus, both E2 and E4 optimally stimulated fibroblast scratch wound closure at 10^-8M, with the higher magnitude of stimulation observed following E2 treatment. Next, an additional experiment was performed using HDF to a) further confirm the effects of E2 and E4 in fibroblasts from a fifth donor and b) explore the relative effect of including CS-FBS in the cell culture media. Three identical sets of scratch assays were performed (comparing vehicle to E2 or E4 treatment at 10^-7M) in DMEM containing either 2% CS-FBS. 0% FBS or 2% FBS (not CS).

Experiment [2] concerns THP1 cells. In words: THP1 macrophage polarisation, qPCR of M1/M2 markers. It is filed as cell-based, human. As to conditions: range of concentrations; for expression of Tnf-α (M1 marker): M1 polarised THP1 cells; for expression of CCL17 (M2 marker): M2 polarised THP1 cells. How it is done: THP1 cells were maintained in RPM1 growth medium supplemented with 10% heat-inactivated FBS and 1% penicillin/streptomycin. Cells were seeded into 12- or 6-well plates at 2×10^5 cells/ml and treated with phorbol 12-myristate 13-acetate (PMA) to induce differentiation to macrophages. Cells were cultured for 24 hours in complete growth medium without PMA, followed by a 6 hour serum starve prior to polarisation. Cells were polarised to M1 macrophages using 20 ng/ml IFN-γ and 10 pg/ml LPS (from E, coli) for 6 or 24 hours and collected for RNA isolation or flow cytometry. Following treatments, human and murine macrophages were collected in Trizol and RNA isolated using the Trizol plus RNA isolation kit (Invitrogen. Thermo Fisher) according to the manufacturer's instructions. RNA was reverse transcribed to cDNA using GoScript reverse transcriptase (Promega). Quantitative real-time PCR was carried out using 2×Takyon SYBR Green mastermix and a CFX Connect thermocycler. Primers for ERα and ERβ were used to explore changes in ER expression after treatment of MEK and MDF with E2 and E4. To investigate the effect of E2 and E4 on MEK differentiation and the expression of ECM proteins by MDF, primers for. Snail, keratin-1 and fibronectin, collagen I. MMP-2 and MMP-9 were used. Primers for INOS. IL-1B and Tnf-α or Ccl17 were used to assess M1/M2 polarisation status. Primers for GAPDH were used to normalise data. Relative gene expression was set to vehicle controls or M0 expression unless otherwise stated. The relative anti-inflammatory effects of both E2 and E4 were evaluated in vitro. First, the human monocyte THP1 cell line was used to screen several concentrations of E2 and E4. THP1 cells were differentiated to a macrophage phenotype by treatment with PMA, followed by polarisation to an M1 or M2 phenotype (FIG. 23). Successful polarisation was confirmed by profiling the expression of the M1 marker (TNF-α) and the M2 marker (CCL17). The effects of co-treatment with a range of E2 or E4 concentrations were evaluated.
A general note: Real-time PCR tracks product formation cycle by cycle.

For experiment [3], the system named is murine peritoneal macrophages. In words: M1-polarised freshly isolated murine peritoneal macrophages, qPCR of M1 markers. It is filed as cell-based, mouse. As to conditions: peritoneal macrophages pre-treated at 10^−7M, M1 polarised 6 hours; for expression of M1 markers (iNOS, IL1-β, Tnf-α): versus vehicle. The protocol: Peritoneal macrophages from C57/B16 mice were isolated by peritoneal lavage. The peritoneal cavity of euthanised mice were filled with 5 ml ice cold PBS supplemented with 3% FBS. Cell-containing lavage fluid was removed using a needle and syringe and cells seeded into 12- or 6-well plates at 1×10^6 cells/ml in RPM1 growth medium supplemented with 10% charcoal-stripped FBS and 1% penicillin/streptomycin, were treated with 10^-7M E2 or E4 in serum free growth medium for 16 hours and polarised to M1-type cells using 100 ng/ml IFN-γ and 1 μg/ml LPS. Following 6- or 24-hours polarisation cells were collected for RNA isolation or flow cytometry. Following treatments, human and murine macrophages were collected in Trizol and RNA isolated using the Trizol plus RNA isolation kit (Invitrogen. Thermo Fisher) according to the manufacturer's instructions. RNA was reverse transcribed to cDNA using GoScript reverse transcriptase (Promega). Quantitative real-time PCR was carried out using 2×Takyon SYBR Green mastermix and a CFX Connect thermocycler. Primers for ERα and ERβ were used to explore changes in ER expression after treatment of MEK and MDF with E2 and E4. To investigate the effect of E2 and E4 on MEK differentiation and the expression of ECM proteins by MDF, primers for. Snail, keratin-1 and fibronectin, collagen I. MMP-2 and MMP-9 were used. Primers for INOS. IL-1B and Tnf-α or Ccl17 were used to assess M1/M2 polarisation status. Primers for GAPDH were used to normalise data. Relative gene expression was set to vehicle controls or M0 expression unless otherwise stated. Finally, the anti-inflammatory effects E2 and E4 were evaluated in freshly isolated murine peritoneal macrophages. Unlike the BMDM protocol, the already differentiated peritoneal macrophages were immediately pre-treated with E2 (10^−7M) or E4 (10^−7M), followed by M1 polarisation using IFN-γ and LPS for 6 hours. […] Note, the overall level of marker expression was higher in these cells. […] The observed anti-inflammatory effects of E4 were broadly similar to those observed for E2.

In experiment [4] the test system is MMP2. Briefly: Zymography of supernatants from human dermal fibroblasts. It is filed as cell-based. As to conditions: HDFs from 3 independent donors, versus control. The protocol: In vitro cultured murine fibroblasts were treated with either E2, E4, DPN or PPT at 10^−7M. As previously reported. […] Next, zymography was performed on cell supernatants from HDFs treated with either E2 or E4, to evaluate the effect of E2 and E4 on cell-derived MMP activity. […] The magnitude of the effect (and statistical significance) was greater in cells treated with E4. No MMP9 activity was detected in any treatment group. Finally, we explored the effect of E2 and E4 on murine fibroblast expression of extracellular matrix genes, specifically collagen 1 (Colal) and fibronectin (Fn1) (FIG. 20).

Structures are written as SMILES. Entries after “also recorded” stand apart in the source; their conditions may differ.

For `C[C@]12CC[C@@H]3c4ccc(O)cc4CC[C@H]3[C@@H]1CC[C@@H]2O` [Formulation E2, 17β-estradiol, reference compound], the “concentration of optimal stimulation of fibroblast scratch wound closure” value in experiment [1] is 10^−8 M. In experiment [1] (10^−7M), the scratch closure entry was “promoted scratch closure” and the “scratch closure compared to vehicle control” value is reported as 141%. The “scratch closure compared to vehicle control” value in experiment [1] (10^−6M) is on record as “no difference in closure was observed”. Besides, in experiment [1] (10^−9M), the “scratch closure compared to vehicle control” value is “no difference in closure was observed”. For the same compound, in experiment [2], the “expression of Tnf-α (M1 marker)” value is recorded as “strong trend towards reduced expression of Tnf-α in M1 polarised cells” and the “expression of CCL17 (M2 marker)” value is “increased expression of CCL 17 in M2 polarised cells”. Also, the “expression of M1 markers (iNOS, IL1-β, Tnf-α)” value in experiment [3] was “strong trend towards reduced expression”. Besides, in experiment [4], the “MMP2 activity in cell supernatants” value is recorded as “significantly reduced MMP2 activity versus control”.

Consider `C[C@]12CC[C@@H]3c4ccc(O)cc4CC[C@H]3[C@@H]1[C@@H](O)[C@@H](O)[C@@H]2O` [Formulation E4, 1,3,5 (10)-estratrien-3,15alpha, 16alpha, 17beta-tetrol], for which the “concentration of optimal stimulation of fibroblast scratch wound closure” value in experiment [1] is 10^−8 M. Further, in experiment [1] (10^−7M), the scratch closure result is recorded as “promoted scratch closure; also recorded: greatest promotion” and the “scratch closure compared to vehicle control” value stood at 147%. Besides, in experiment [1] (10^−6M), the “scratch closure compared to vehicle control” value stood at 142%. In addition, the “scratch closure compared to vehicle control” value in experiment [1] (10^−8M) worked out at 152%. In addition, in experiment [2], the “expression of Tnf-α (M1 marker)” value is on record as “strong trend towards reduced expression of Tnf-α in M1 polarised cells” and the “expression of CCL17 (M2 marker)” value is listed as “increased expression of CCL 17 in M2 polarised cells”. Further, in experiment [3], the “expression of IL1-β” value is “achieved statistical significance” and the “expression of M1 markers (iNOS, IL1-β, Tnf-α)” value is “strong trend towards reduced expression”. Also, the “MMP2 activity in cell supernatants” value in experiment [4] is on record as “significantly reduced MMP2 activity versus control”.
